Experiments:
Assay type in all cases: cell-based
TNF-α = TNF-α inhibition assay, LPS-induced PBMCs / CD14+ monocytes (Meso Scale); settings: 1 h pretreatment, 100 ng/mL LPS 18-24 h
Method in brief: (§1)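 Thawed human PBMCs or CD14+ mobilized peripheral blood monocytes, 200,000 cells/well in RPMI-1640/10% FBS, pretreated with compound or DMSO 1 h, then stimulated with 100 ng/mL LPS for 18-24 h. Supernatant cytokine measured by Meso Scale; % inhibition binned A–D (<50%, 50–70%, 70–90%, ≥90%), fold-change binned A–D (≤0.1, ≤0.5, ≤1, >1).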

IL-1β = IL-1β inhibition assay, LPS-induced PBMCs / CD14+ monocytes (Meso Scale); settings: 1 h pretreatment, 100 ng/mL LPS 18-24 h
Method in brief: as §1

IL-2 = IL-2 fold-change assay, anti-CD3 stimulated PBMCs (Mesoscale); settings: PBMC, PBMCs on anti-human CD3, 24 h, fold difference from the DMSO control
Description: For the IL-2 analysis, 96 well plates were precoated with 1 μg/mL anti-human CD3 antibody (OK3, eBioscience Inc., San Diego, Calif.). After washing with PBS, the indicated compound was added (50 μL/well) followed by PBMCs diluted at 3-4 million cells/mL (150 μL/well). Plates were incubated for 24 h and the supernatants collected for Mesoscale IL-2 analysis. IL-2 activity is measured as fold difference from the DMSO control.
In Table 6, the % inhibition values are reported as “A”, “B”, “C”, or “D”. “A” represents a % inhibition value of less than 50% (value <50%). “B” represents a % inhibition value of equal to or more than 50% and less than 70% (50%≤value<70%). “C” represents a % inhibition value of equal to or more than 70% and less than 90% (70%≤value<90%). “D” represents a % inhibition value of equal or more than 90% (value ≥90%). In Table 7, the fold-change values are reported as “A”, “B”, “C”, or “D”. “A” represents a fold-change value of equal to or less than 0.1 (value ≤0.1). “B” represents a fold-change value of more than 0.1 and equal to or less than 0.5 (0.1<value≤0.5). “C” represents a fold-change value of more than 0.5 and equal to or less than 1 (0.5<value≤1). “D” represents a fold-change value of more than 1 (value >1).

MOLM-13 cells = assay: MOLM-13 cell viability assay (CellTiter-Glo); settings: Homo sapiens, MOLM-13, 72 h, 3 days, read-out: MOLM-13 Cell Viability % DMSO at 1 μM
Method in brief: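 MOLM-13 cells at 2500 cells/well were exposed to compound for 3 days at 37 °C. Viability was read by CellTiter-Glo luminescence and expressed as % of DMSO control, binned A (<50%), B (50–<70%), C (70–<90%) or D (≥90%).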

IL-6 = IL-6 inhibition assay, LPS-induced PBMCs / CD14+ monocytes (Meso Scale); settings: 1 h pretreatment, 100 ng/mL LPS 18-24 h
Method in brief: as §1

IKAROS = biological target: T1, IKAROS (Homo sapiens, UniProt Q13422+Q96SW2); assay: IKAROS degradation assay (Western blot, MV-4-11 cells); settings: MV4-11, 6-8 h
T1 construct: endogenous in cells; host or cells: MV-4-11
Method in brief: (§2)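 Western blot, infrared fluorescence read-out: % degradation versus DMSO after 6-8 h compound treatment of ~10^6 cells/mL. RIPA whole-cell lysates on 4-12% gels, nitrocellulose transfer. Binned A <25%, B 25–<50%, C 50–<75%, D ≥75%.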

CDK9 = biological target: T2, CDK9 (Homo sapiens, UniProt P50750); assay: CDK9 degradation assay (Western blot, MV-4-11 cells); settings: 6-8 h; for Dmax at 0.1 µM: MV4-11, 0.1 μM; for Dmax at 1 µM: MV4-11, 1 μM
T2 construct: Whole cell extracts were prepared using RIPA buffer; endogenous in cells; host or cells: MV-4-11
Method in brief: as §2

CDK16 = biological target: T3, CDK16 (Homo sapiens, UniProt Q00536); assay: CDK16 degradation assay (Western blot, MV-4-11 cells); settings: 6-8 h; for Dmax at 0.1 µM: MV4-11, 0.1 μM; for Dmax at 1 µM: MV4-11, 1 μM
T3 construct: Whole cell extracts were prepared using RIPA buffer; endogenous in cells; host or cells: MV-4-11
Method in brief: as §2

GSPT1 = biological target: T4, GSPT1 (Homo sapiens, UniProt P15170+Q96SW2); assay: GSPT1 degradation assay (Western blot, MV-4-11 cells); settings: MV4-11, 6-8 h
T4 construct: Whole cell extracts were prepared using RIPA buffer; endogenous in cells; host or cells: MV-4-11
Method in brief: as §2

T1 sequence (Q13422 whole entry): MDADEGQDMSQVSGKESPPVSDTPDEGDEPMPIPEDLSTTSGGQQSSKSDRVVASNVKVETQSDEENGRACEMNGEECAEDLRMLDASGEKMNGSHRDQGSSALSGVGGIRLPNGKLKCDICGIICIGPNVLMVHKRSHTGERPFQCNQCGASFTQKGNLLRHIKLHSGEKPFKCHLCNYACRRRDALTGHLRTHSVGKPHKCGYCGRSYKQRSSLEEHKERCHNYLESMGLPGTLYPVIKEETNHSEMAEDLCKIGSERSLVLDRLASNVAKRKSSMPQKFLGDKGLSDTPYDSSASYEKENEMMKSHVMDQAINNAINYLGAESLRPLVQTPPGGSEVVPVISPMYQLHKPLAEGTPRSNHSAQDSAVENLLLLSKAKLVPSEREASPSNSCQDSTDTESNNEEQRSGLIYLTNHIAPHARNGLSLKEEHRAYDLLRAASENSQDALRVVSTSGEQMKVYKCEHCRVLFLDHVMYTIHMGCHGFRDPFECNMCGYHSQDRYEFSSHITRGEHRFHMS
T1 sequence (Q96SW2 whole entry): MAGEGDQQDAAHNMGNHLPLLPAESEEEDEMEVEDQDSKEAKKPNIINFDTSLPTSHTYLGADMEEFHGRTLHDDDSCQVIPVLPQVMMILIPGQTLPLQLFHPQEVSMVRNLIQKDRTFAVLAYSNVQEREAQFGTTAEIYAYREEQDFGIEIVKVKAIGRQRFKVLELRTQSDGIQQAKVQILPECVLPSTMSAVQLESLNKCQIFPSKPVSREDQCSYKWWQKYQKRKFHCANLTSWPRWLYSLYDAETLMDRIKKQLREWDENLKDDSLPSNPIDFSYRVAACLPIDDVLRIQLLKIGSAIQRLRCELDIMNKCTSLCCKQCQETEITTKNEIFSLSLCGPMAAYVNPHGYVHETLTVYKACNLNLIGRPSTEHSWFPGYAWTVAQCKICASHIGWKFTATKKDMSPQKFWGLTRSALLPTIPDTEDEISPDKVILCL
T1 sequence (Q16531 whole entry partner): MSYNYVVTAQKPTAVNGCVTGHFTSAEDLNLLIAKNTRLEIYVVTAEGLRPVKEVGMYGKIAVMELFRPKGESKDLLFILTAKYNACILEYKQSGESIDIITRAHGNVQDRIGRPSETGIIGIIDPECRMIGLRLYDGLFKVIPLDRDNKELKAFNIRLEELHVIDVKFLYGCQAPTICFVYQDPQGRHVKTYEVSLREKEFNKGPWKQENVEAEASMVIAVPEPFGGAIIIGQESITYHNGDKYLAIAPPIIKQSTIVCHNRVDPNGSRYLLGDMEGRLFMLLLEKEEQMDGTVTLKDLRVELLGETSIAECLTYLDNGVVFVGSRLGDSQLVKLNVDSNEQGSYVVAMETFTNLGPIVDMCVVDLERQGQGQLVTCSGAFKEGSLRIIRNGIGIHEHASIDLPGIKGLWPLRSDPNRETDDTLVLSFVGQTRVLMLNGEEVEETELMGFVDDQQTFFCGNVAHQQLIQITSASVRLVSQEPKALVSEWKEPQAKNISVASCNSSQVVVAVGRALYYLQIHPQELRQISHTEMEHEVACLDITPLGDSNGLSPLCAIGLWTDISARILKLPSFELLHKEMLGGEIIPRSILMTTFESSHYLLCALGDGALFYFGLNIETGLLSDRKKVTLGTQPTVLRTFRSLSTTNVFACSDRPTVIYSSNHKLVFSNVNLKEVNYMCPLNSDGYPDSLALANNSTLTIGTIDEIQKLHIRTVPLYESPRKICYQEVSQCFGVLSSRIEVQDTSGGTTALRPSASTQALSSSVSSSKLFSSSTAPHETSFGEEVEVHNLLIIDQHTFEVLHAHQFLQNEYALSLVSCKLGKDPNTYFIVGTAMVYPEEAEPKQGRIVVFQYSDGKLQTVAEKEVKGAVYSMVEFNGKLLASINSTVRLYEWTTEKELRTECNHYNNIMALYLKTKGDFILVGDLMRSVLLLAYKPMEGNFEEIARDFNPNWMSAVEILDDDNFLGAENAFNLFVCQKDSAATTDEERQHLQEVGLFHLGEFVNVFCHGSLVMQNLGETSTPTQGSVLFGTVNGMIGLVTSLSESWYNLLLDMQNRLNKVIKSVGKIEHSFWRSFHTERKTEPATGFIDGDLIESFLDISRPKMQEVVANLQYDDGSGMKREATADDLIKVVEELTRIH
T2 sequence (P50750 whole entry): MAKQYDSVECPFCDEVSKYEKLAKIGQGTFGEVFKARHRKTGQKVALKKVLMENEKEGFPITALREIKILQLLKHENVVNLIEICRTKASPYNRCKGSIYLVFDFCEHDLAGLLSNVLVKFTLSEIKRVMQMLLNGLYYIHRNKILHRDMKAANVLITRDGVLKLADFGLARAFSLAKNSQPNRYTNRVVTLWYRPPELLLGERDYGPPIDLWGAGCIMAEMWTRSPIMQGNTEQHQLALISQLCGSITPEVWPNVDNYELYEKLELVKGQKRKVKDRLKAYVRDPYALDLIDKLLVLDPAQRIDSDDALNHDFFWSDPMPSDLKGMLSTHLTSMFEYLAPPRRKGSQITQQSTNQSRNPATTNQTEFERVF
T3 sequence (Q00536 whole entry): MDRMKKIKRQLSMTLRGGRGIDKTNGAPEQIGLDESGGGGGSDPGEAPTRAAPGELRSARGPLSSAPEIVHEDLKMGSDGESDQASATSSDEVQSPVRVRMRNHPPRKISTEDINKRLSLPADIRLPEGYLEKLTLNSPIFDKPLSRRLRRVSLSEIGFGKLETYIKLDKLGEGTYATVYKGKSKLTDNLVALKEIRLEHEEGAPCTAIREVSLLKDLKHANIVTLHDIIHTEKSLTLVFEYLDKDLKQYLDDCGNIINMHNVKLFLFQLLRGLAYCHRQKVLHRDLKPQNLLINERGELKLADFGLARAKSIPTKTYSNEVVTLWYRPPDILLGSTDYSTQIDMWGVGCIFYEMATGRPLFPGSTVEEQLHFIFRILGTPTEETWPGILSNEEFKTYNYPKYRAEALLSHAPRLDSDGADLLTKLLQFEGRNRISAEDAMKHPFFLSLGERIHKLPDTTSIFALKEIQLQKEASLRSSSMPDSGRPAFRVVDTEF
T4 sequence (P15170 whole entry): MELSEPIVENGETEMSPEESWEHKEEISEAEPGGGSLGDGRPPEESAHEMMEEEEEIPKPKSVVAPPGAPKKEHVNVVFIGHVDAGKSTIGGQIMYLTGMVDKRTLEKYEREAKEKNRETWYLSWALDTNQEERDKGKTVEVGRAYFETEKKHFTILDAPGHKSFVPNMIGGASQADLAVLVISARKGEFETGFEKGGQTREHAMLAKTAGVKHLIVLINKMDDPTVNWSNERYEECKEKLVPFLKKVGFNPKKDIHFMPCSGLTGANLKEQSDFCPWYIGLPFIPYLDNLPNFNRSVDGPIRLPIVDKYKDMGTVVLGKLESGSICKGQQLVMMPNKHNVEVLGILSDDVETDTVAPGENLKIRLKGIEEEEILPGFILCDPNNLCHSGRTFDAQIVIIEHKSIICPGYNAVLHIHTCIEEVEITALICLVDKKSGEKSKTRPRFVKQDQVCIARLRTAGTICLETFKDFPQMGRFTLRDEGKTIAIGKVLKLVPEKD
T4 sequence (Q96SW2 whole entry): as the sequence (Q96SW2 whole entry) above
T4 sequence (Q16531 whole entry partner): as the sequence (Q16531 whole entry partner) above

Compound | Dmax at 1 µM (IKAROS) [%] | Dmax at 0.1 µM (CDK9) [%] | Dmax at 1 µM (CDK9) [%] | Dmax at 0.1 µM (CDK16) [%] | Dmax at 1 µM (CDK16) [%] | Dmax at 1 µM (GSPT1) [%] | inhibition at 1 µM (TNF-α) [%] | inhibition at 1 µM (IL-1β) [%] | fold induction at 1 µM (IL-2) | viability at 1 µM (MOLM-13 cells) [%] | inhibition at 1 µM (IL-6) [%]
CC(C)(C)c1cnc(CSc2cnc(NC(=O)C3CCN(CC(=O)NCCOCCNC(=O)NCc4scc5c4CN(C4CCC(=O)NC4=O)C5=O)CC3)s2)o1 (stereo not drawn) [Compound 2, 3-{6-Oxo-2-[(3-{2-[2-(2-{4-[(5-{[5-(tert-butyl)-1,3-oxazol-2-yl]methylthio}-1,3-thiazol-2-ylamino)carbonyl]-1-piperidyl}acetylamino)ethoxy]ethyl}ureido)methyl]-3-thia-7-azabicyclo[3.3.0]octa-1,4-dien-7-yl}-2,6-piperidinedione] | 25 to 50 | – | – | – | – | – | 70 to 90 | > 90 | 0.1 to 0.5 | > 90 | > 90
CC(C)(C)c1cnc(CSc2cnc(NC(=O)C3CCN(CC(=O)NCCOCCOCCNC(=O)NCc4cc5c(s4)C(=O)N(C4CCC(=O)NC4=O)C5)CC3)s2)o1 (stereo not drawn) [Compound 13, N-(5-(((5-(tert-butyl)oxazol-2-yl)methyl)thio)thiazol-2-yl)-1-(1-(5-(2,6-dioxopiperidin-3-yl)-6-oxo-5,6-dihydro-4H-thieno[2,3-c]pyrrol-2-yl)-3,14-dioxo-7,10-dioxa-2,4,13-triazapentadecan-15-yl)piperidine-4-carboxamide] | – | 50 to 75 | ≥ 75 | < 25 | < 25 | – | > 90 | > 90 | ≤ 0.1 | > 90 | > 90
Cn1ncc(-c2nc(N[C@H]3CC[C@H](NCCCCCCNC(=O)NCc4cc5c(s4)C(=O)N(C4CCC(=O)NC4=O)C5)CC3)ncc2F)c1CC1CC1 (stereo partly drawn) [Compound 21, 1-(6-(((1r,4r)-4-((4-(5-(cyclopropylmethyl)-1-methyl-1H-pyrazol-4-yl)-5-fluoropyrimidin-2-yl)amino)cyclohexyl)amino)hexyl)-3-((5-(2,6-dioxopiperidin-3-yl)-6-oxo-5,6-dihydro-4H-thieno[2,3-c]pyrrol-2-yl)methyl)urea] | ≥ 75 | – | – | – | – | – | < 50 | < 50 | 0.1 to 0.5 | > 90 | < 50
CC(C)(C)c1cnc(CSc2cnc(NC(=O)C3CCN(CC(=O)NCCOCCOCCNCC(=O)NCc4scc5c4CN(C4CCC(=O)NC4=O)C5=O)CC3)s2)o1 (stereo not drawn) [Compound 26, N-(5-(((5-(tert-butyl)oxazol-2-yl)methyl)thio)thiazol-2-yl)-1-(1-(5-(2,6-dioxopiperidin-3-yl)-4-oxo-5,6-dihydro-4H-thieno[3,4-c]pyrrol-1-yl)-3,15-dioxo-8,11-dioxa-2,5,14-triazahexadecan-16-yl)piperidine-4-carboxamide] | 50 to 75 | 50 to 75 | ≥ 75 | 25 to 50 | < 25 | – | 70 to 90 | > 90 | ≤ 0.1 | > 90 | > 90
Cn1ncc(-c2nc(N[C@H]3CC[C@H](NCC(=O)NCCOCCOCC(=O)NCc4ccc(COc5cccc6c5CN(C5CCC(=O)NC5=O)C6=O)cc4)CC3)ncc2Cl)c1CC1CC1 (stereo partly drawn) [Compound 28, 2-(((1r,4r)-4-((5-chloro-4-(5-(cyclopropylmethyl)-1-methyl-1H-pyrazol-4-yl)pyrimidin-2-yl)amino)cyclohexyl)amino)-N-(2-(2-(2-((4-(((2-(2,6-dioxopiperidin-3-yl)-1-oxoisoindolin-4-yl)oxy)methyl)benzyl)amino)-2-oxoethoxy)ethoxy)ethyl)acetamide] | 50 to 75 | – | – | – | – | < 25 | > 90 | > 90 | ≤ 0.1 | > 90 | > 90
CC(C)(C)c1cnc(CSc2cnc(NC(=O)C3CCN(CC(=O)NCCOCCOCCOCCNCC(=O)NCc4cc5c(s4)C(=O)N(C4CCC(=O)NC4=O)C5)CC3)s2)o1 (stereo not drawn) [Compound 42, N-(5-(((5-(tert-butyl)oxazol-2-yl)methyl)thio)thiazol-2-yl)-1-(1-(5-(2,6-dioxopiperidin-3-yl)-6-oxo-5,6-dihydro-4H-thieno[2,3-c]pyrrol-2-yl)-3,18-dioxo-8,11,14-trioxa-2,5,17-triazanonadecan-19-yl)piperidine-4-carboxamide] | 25 to 50 | 25 to 50 | ≥ 75 | < 25 | < 25 | – | < 50 | > 90 | 0.1 to 0.5 | 70 to 90 | > 90
Cn1ncc(-c2cc(N[C@H]3CC[C@H](NCCCCCCCCNC(=O)NCc4cc5c(s4)C(=O)N(C4CCC(=O)NC4=O)C5)CC3)ncc2F)c1CC1CC1 (stereo partly drawn) [Compound 59, 1-(8-(((1r,4r)-4-((4-(5-(cyclopropylmethyl)-1-methyl-1H-pyrazol-4-yl)-5-fluoropyridin-2-yl)amino)cyclohexyl)amino)octyl)-3-((5-(2,6-dioxopiperidin-3-yl)-6-oxo-5,6-dihydro-4H-thieno[2,3-c]pyrrol-2-yl)methyl)urea] | – | – | – | – | – | – | < 50 | 70 to 90 | 0.5 to 1 | > 90 | 70 to 90

More lines, main results first:

Dmax at 1 µM (IKAROS) [%] | Dmax at 0.1 µM (CDK9) [%] | Dmax at 1 µM (CDK9) [%] | Dmax at 0.1 µM (CDK16) [%] | Dmax at 1 µM (CDK16) [%] | Dmax at 1 µM (GSPT1) [%] | Compound | inhibition at 1 µM (TNF-α) [%] | inhibition at 1 µM (IL-1β) [%] | fold induction at 1 µM (IL-2) | viability at 1 µM (MOLM-13 cells) [%] | inhibition at 1 µM (IL-6) [%]
25 to 50 | – | – | – | – | – | CC(C)(C)c1cnc(CSc2cnc(NC(=O)C3CCN(CCCCCCCNCC(=O)NCc4cc5c(s4)C(=O)N(C4CCC(=O)NC4=O)C5)CC3)s2)o1 (stereo not drawn) [Compound 57, N-(5-(((5-(tert-butyl)oxazol-2-yl)methyl)thio)thiazol-2-yl)-1-(7-((2-(((5-(2,6-dioxopiperidin-3-yl)-6-oxo-5,6-dihydro-4H-thieno[2,3-c]pyrrol-2-yl)methyl)amino)-2-oxoethyl)amino)heptyl)piperidine-4-carboxamide] | > 90 | > 90 | ≤ 0.1 | > 90 | > 90
25 to 50 | – | – | – | – | – | Cc1nc2c(CNC(=O)NCCCCCCCCN[C@H]3CC[C@H](Nc4ncc(Cl)c(-c5cnn(C)c5CC5CC5)n4)CC3)scc2c(=O)n1C1CCC(=O)NC1=O (stereo partly drawn) [Compound 61, 1-(8-(((1r,4r)-4-((5-chloro-4-(5-(cyclopropylmethyl)-1-methyl-1H-pyrazol-4-yl)pyrimidin-2-yl)amino)cyclohexyl)amino)octyl)-3-((3-(2,6-dioxopiperidin-3-yl)-2-methyl-4-oxo-3,4-dihydrothieno[3,4-d]pyrimidin-7-yl)methyl)urea] | > 90 | > 90 | 0.1 to 0.5 | > 90 | > 90
25 to 50 | – | – | – | – | < 25 | Cn1ncc(-c2cc(N[C@H]3CC[C@H](NCC(=O)NCCNCC(=O)NCc4cc5c(s4)C(=O)N(C4CCC(=O)NC4=O)C5)CC3)ncc2F)c1CC1CC1 (stereo partly drawn) [Compound 63, 2-(((1r,4r)-4-((4-(5-(cyclopropylmethyl)-1-methyl-1H-pyrazol-4-yl)-5-fluoropyridin-2-yl)amino)cyclohexyl)amino)-N-(2-((2-(((5-(2,6-dioxopiperidin-3-yl)-6-oxo-5,6-dihydro-4H-thieno[2,3-c]pyrrol-2-yl)methyl)amino)-2-oxoethyl)amino)ethyl)acetamide] | – | – | > 1 | > 90 | –

Reference: patent US20220153751A1, “BIFUNCTIONAL COMPOUNDS” (BioTheryX, Inc., priority 2018, published 2022)
